EPA's ToxValDB 9.5

Tested on: Rattus norvegicus
Details: short-term, duration: 28 days, oral, gavage, Sprague-Dawley

O=C(O)C(F)(F)C(F)(F)C(F)(F)C(F)(F)C(F)(F)F [Perfluorohexanoic acid]
LOEL (F, Clinical chemistry_Alanine aminotransferase): 500 mg/kg-day | NOEL (F, Clinical chemistry_Albumin): 1000 mg/kg-day | LOEL (F, Clinical chemistry_Albumin/globulin ratio): 1000 mg/kg-day | LOEL (F, Clinical chemistry_Alkaline phosphatase): 1000 mg/kg-day | LOEL (F, Clinical chemistry_Aspartate aminotransferase): 500 mg/kg-day | NOEL (F, Clinical chemistry_Cholesterol): 1000 mg/kg-day | NOEL (F, Clinical chemistry_Creatinine kinase): 1000 mg/kg-day | NOEL (F, Clinical chemistry_Direct bilirubin): 1000 mg/kg-day | NOEL (F, Clinical chemistry_Free thyroxine): 1000 mg/kg-day | LOEL (F, Clinical chemistry_Globulin): 1000 mg/kg-day | NOEL (F, Clinical chemistry_Indirect bilirubin): 1000 mg/kg-day | NOEL (F, Clinical chemistry_Sorbitol dehydrogenase): 1000 mg/kg-day | NOEL (F, Clinical chemistry_Testosterone): 1000 mg/kg-day | NOEL (F, Clinical chemistry_Thyroid stimulating hormone): 1000 mg/kg-day | LOEL (F, Clinical chemistry_Total bile acids): 1000 mg/kg-day | LOEL (F, Clinical chemistry_Total protein): 1000 mg/kg-day | NOEL (F, Clinical chemistry_Total thyroxine): 1000 mg/kg-day | NOEL (F, Clinical chemistry_Total triiodothyronine): 1000 mg/kg-day | NOEL (F, Clinical chemistry_Triglycerides): 1000 mg/kg-day | LOEL (F, Gene expression_Acox1): 500 mg/kg-day | LOEL (F, Gene expression_Cyp2b1): 62.6 mg/kg-day | LOEL (F, Gene expression_Cyp2b2): 62.6 mg/kg-day | LOEL (F, Gene expression_Cyp4a1): 500 mg/kg-day | LOEL (F, Hematology_Erythrocytes): 250 mg/kg-day | LOEL (F, Hematology_Hematocrit): 250 mg/kg-day | LOEL (F, Hematology_Hemoglobin): 250 mg/kg-day | LOEL (F, Hematology_Mean corpuscular hemoglobin concentration): 1000 mg/kg-day | LOEL (F, Hematology_Mean corpuscular volume): 500 mg/kg-day | LOEL (F, Hematology_Platelets): 1000 mg/kg-day | LOEL (F, Hematology_Reticulocytes): 500 mg/kg-day | NOEL (F, Nonneoplastic effects_Bone marrow - Hypocellularity): 1000 mg/kg-day | NOEL (F, Nonneoplastic effects_Forestomach - Epithelium, hyperplasia): 1000 mg/kg-day | NOEL (F, Nonneoplastic effects_Forestomach - Inflammation, chronic active): 1000 mg/kg-day | LOEL (F, Nonneoplastic effects_Kidney - Nephropathy, chronic progressive): 1000 mg/kg-day | NOEL (F, Nonneoplastic effects_Liver - Hepatocyte, Necrosis): 1000 mg/kg-day | LOEL (F, Nonneoplastic effects_Liver - Hepatocyte, cytoplasmic alteration): 1000 mg/kg-day | LOEL (F, Nonneoplastic effects_Liver - Hepatocyte, hypertrophy): 1000 mg/kg-day | NOEL (F, Nonneoplastic effects_Liver - Hepatocyte, vacuolization cytoplasmic): 1000 mg/kg-day | NOEL (F, Nonneoplastic effects_Lymph nodes - Mandibular, atrophy): 1000 mg/kg-day | NOEL (F, Nonneoplastic effects_Lymph nodes - Mesenteric, atrophy): 1000 mg/kg-day | LOEL (F, Nonneoplastic effects_Nose - Olfactory epithelium, degeneration): 250 mg/kg-day | LOEL (F, Nonneoplastic effects_Nose - Olfactory epithelium, hyperplasia): 250 mg/kg-day | LOEL (F, Nonneoplastic effects_Nose - Olfactory epithelium, inflammation, suppurative): 500 mg/kg-day | NOEL (F, Nonneoplastic effects_Nose - Respiratory epithelium, hyperplasia): 1000 mg/kg-day | NOEL (F, Nonneoplastic effects_Nose - Respiratory epithelium, inflammation, chronic active): 1000 mg/kg-day | NOEL (F, Nonneoplastic effects_Spleen - Atrophy): 1000 mg/kg-day | LOEL (F, Nonneoplastic effects_Spleen - Extramedullary hematopoiesis, increased): 1000 mg/kg-day | NOEL (F, Nonneoplastic effects_Thymus - Atrophy): 1000 mg/kg-day | NOEL (F, Nonneoplastic effects_Thymus - Lymphocyte, apoptosis): 1000 mg/kg-day | NOEL (F, Nonneoplastic effects_Thyroid gland - Follicular cell hypertrophy): 1000 mg/kg-day | LOEL (F, Organ weights_Liver - Absolute): 500 mg/kg-day | LOEL (F, Organ weights_Liver - Relative): 500 mg/kg-day | NOEL (F, Organ weights_R. adrenal gland - Absolute): 1000 mg/kg-day | NOEL (F, Organ weights_R. adrenal gland - Relative): 1000 mg/kg-day | LOEL (F, Organ weights_R. kidney - Absolute): 1000 mg/kg-day | LOEL (F, Organ weights_R. kidney - Relative): 1000 mg/kg-day | NOEL (F, Organ weights_Spleen - Absolute): 1000 mg/kg-day | NOEL (F, Organ weights_Spleen - Relative): 1000 mg/kg-day | NOEL (F, Organ weights_Thymus - Absolute): 1000 mg/kg-day | NOEL (F, Organ weights_Thymus - Relative): 1000 mg/kg-day | NOEL (F, Organ weights_Thyroid gland - Absolute): 1000 mg/kg-day | NOEL (F, Organ weights_Thyroid gland - Relative): 1000 mg/kg-day | NOEL (F, Survival rates): 1000 mg/kg-day | NOEL (F, body weight): 1000 mg/kg-day | LOEL (M, Clinical chemistry_Alanine aminotransferase): 500 mg/kg-day | LOEL (M, Clinical chemistry_Albumin): 125 mg/kg-day | LOEL (M, Clinical chemistry_Albumin/globulin ratio): 250 mg/kg-day | LOEL (M, Clinical chemistry_Alkaline phosphatase): 500 mg/kg-day | LOEL (M, Clinical chemistry_Aspartate aminotransferase): 500 mg/kg-day | LOEL (M, Clinical chemistry_Cholesterol): 62.6 mg/kg-day | NOEL (M, Clinical chemistry_Creatinine kinase): 1000 mg/kg-day | NOEL (M, Clinical chemistry_Direct bilirubin): 1000 mg/kg-day | LOEL (M, Clinical chemistry_Free thyroxine): 62.6 mg/kg-day | LOEL (M, Clinical chemistry_Globulin): 125 mg/kg-day | LOEL (M, Clinical chemistry_Sorbitol dehydrogenase): 1000 mg/kg-day | NOEL (M, Clinical chemistry_Testosterone): 1000 mg/kg-day | NOEL (M, Clinical chemistry_Thyroid stimulating hormone): 1000 mg/kg-day | LOEL (M, Clinical chemistry_Total bile acids): 1000 mg/kg-day | LOEL (M, Clinical chemistry_Total protein): 250 mg/kg-day | LOEL (M, Clinical chemistry_Total thyroxine): 62.6 mg/kg-day | LOEL (M, Clinical chemistry_Total_triiodothyronine): 62.6 mg/kg-day | NOEL (M, Clinical chemistry_Triglycerides): 1000 mg/kg-day | LOEL (M, Gene expression_Acox1): 500 mg/kg-day | LOEL (M, Gene expression_Acyl-CoA oxidase): 250 mg/kg-day | LOEL (M, Gene expression_Cyp2b1): 62.6 mg/kg-day | LOEL (M, Gene expression_Cyp2b2): 62.6 mg/kg-day | LOEL (M, Gene expression_Cyp4a1): 62.6 mg/kg-day | LOEL (M, Hematology_Erythrocytes): 62.6 mg/kg-day | LOEL (M, Hematology_Hematocrit): 62.6 mg/kg-day | LOEL (M, Hematology_Hemoglobin): 62.6 mg/kg-day | LOEL (M, Hematology_Mean corpuscular hemoglobin concentration): 1000 mg/kg-day | LOEL (M, Hematology_Mean corpuscular volume): 250 mg/kg-day | LOEL (M, Hematology_Platelets): 500 mg/kg-day | LOEL (M, Hematology_Reticulocytes): 500 mg/kg-day | NOEL (M, Nonneoplastic effects_Bone marrow - Hypocellularity): 1000 mg/kg-day | NOEL (M, Nonneoplastic effects_Epididymis - Duct, exfoliated germ cell): 1000 mg/kg-day | NOEL (M, Nonneoplastic effects_Epididymis - Epithelium, apoptosis): 1000 mg/kg-day | NOEL (M, Nonneoplastic effects_Epididymis - Hypospermia): 1000 mg/kg-day | NOEL (M, Nonneoplastic effects_Forestomach - Epithelium, hyperplasia): 1000 mg/kg-day | NOEL (M, Nonneoplastic effects_Forestomach - Inflammation, chronic active): 1000 mg/kg-day | NOEL (M, Nonneoplastic effects_Kidney - Nephropathy, chronic progressive): 1000 mg/kg-day | NOEL (M, Nonneoplastic effects_Liver - Hepatocyte, Necrosis): 1000 mg/kg-day | LOEL (M, Nonneoplastic effects_Liver - Hepatocyte, cytoplasmic alteration): 1000 mg/kg-day | LOEL (M, Nonneoplastic effects_Liver - Hepatocyte, hypertrophy): 500 mg/kg-day | NOEL (M, Nonneoplastic effects_Liver - Hepatocyte, vacuolization cytoplasmic): 1000 mg/kg-day | NOEL (M, Nonneoplastic effects_Lymph nodes - Mandibular, atrophy): 1000 mg/kg-day | NOEL (M, Nonneoplastic effects_Lymph nodes - Mesenteric, atrophy): 1000 mg/kg-day | LOEL (M, Nonneoplastic effects_Nose - Olfactory epithelium, degeneration): 250 mg/kg-day | LOEL (M, Nonneoplastic effects_Nose - Olfactory epithelium, hyperplasia): 250 mg/kg-day | LOEL (M, Nonneoplastic effects_Nose - Olfactory epithelium, inflammation, suppurative): 1000 mg/kg-day | NOEL (M, Nonneoplastic effects_Nose - Respiratory epithelium, hyperplasia): 1000 mg/kg-day | NOEL (M, Nonneoplastic effects_Nose - Respiratory epithelium, inflammation, chronic active): 1000 mg/kg-day | NOEL (M, Nonneoplastic effects_Spleen - Atrophy): 1000 mg/kg-day | LOEL (M, Nonneoplastic effects_Spleen - Extramedullary hematopoiesis, increased): 500 mg/kg-day | NOEL (M, Nonneoplastic effects_Testes - Germinal epithelium, degeneration): 1000 mg/kg-day | NOEL (M, Nonneoplastic effects_Testes - Interstitial cell, atrophy): 1000 mg/kg-day | NOEL (M, Nonneoplastic effects_Testes - Seminiferous tubule, spermatid retention): 1000 mg/kg-day | NOEL (M, Nonneoplastic effects_Thymus - Atrophy): 1000 mg/kg-day | NOEL (M, Nonneoplastic effects_Thymus - Lymphocyte, apoptosis): 1000 mg/kg-day | NOEL (M, Nonneoplastic effects_Thyroid gland - Follicular cell hypertrophy): 1000 mg/kg-day | LOEL (M, Organ weights_Liver - Absolute): 500 mg/kg-day | LOEL (M, Organ weights_Liver - Relative): 250 mg/kg-day | NOEL (M, Organ weights_R. adrenal gland - Absolute): 1000 mg/kg-day | NOEL (M, Organ weights_R. adrenal gland - Relative): 1000 mg/kg-day | NOEL (M, Organ weights_R. kidney - Absolute): 1000 mg/kg-day | LOEL (M, Organ weights_R. kidney - Relative): 500 mg/kg-day | NOEL (M, Organ weights_R. testis - Absolute): 1000 mg/kg-day | NOEL (M, Organ weights_Spleen - Absolute): 1000 mg/kg-day | NOEL (M, Organ weights_Spleen - Relative): 1000 mg/kg-day | LOEL (M, Organ weights_Thymus - Absolute): 1000 mg/kg-day | NOEL (M, Organ weights_Thymus - Relative): 1000 mg/kg-day | NOEL (M, Organ weights_Thyroid gland - Absolute): 1000 mg/kg-day | NOEL (M, Organ weights_Thyroid gland - Relative): 1000 mg/kg-day | LOEL (M, Reproductive toxicity_Altered sperm parameters): 1000 mg/kg-day | NOEL (M, Survival rates): 1000 mg/kg-day | LOEL (M, body weight): 1000 mg/kg-day
